Columns and labels:
[1] = system: Zygosaccharomyces strains or Brettanomyces strains; assay: 16 week spoilage trial in carbonated lemon-lime beverage (Sierra Mist, 3.6 volumes CO2, PET), Comparative Example 1; assay type: cell-based; settings: for samples spoiled: period of the test (14 weeks, 98 days), 25° C.
Protocol: […] This beverage is carbonated to 3.6 volumes CO2 in PET containers. Negative control containers received no inoculum. Positive control samples were inoculated with either Zygosaccharomyces strains (907, 28, Marion, HP, Mt. Dew, & SM Soiler) or Brettanomyces strains Dan, H2O2, Cherry 7-UP, 1601-1, and SY-05). […] All samples were then held at 25° C. for the duration of the study. […] 33% of the samples containing 15 ppm spoiled and 100% of samples containing 5 ppm pimaricin spoiled.

spoilage organisms = assay: Degradation kinetic of pimaricin and onset of spoilage in carbonated beverage (Background Example 4); assay type: cell-based
From the text: In the absence of analytical data about the stability of pimaricin in solution, the interpretation of the data about the stability of product over time can be interpreted in one of two ways. Either no degradation of pimaricin occurred and product spoiled because of the outgrowth of those few organisms that were tolerant to the quantity of pimaricin present or spoilage occurred as a consequence of the survival and then outgrowth of organisms as a consequence of the degradation of pimaricin below some critical concentration. A strong argument for the latter is offered in Background Example 4, FIG. 4. Herein, the degradation of pimaricin is tracked from initial concentrations of 13 and 25 ppm in parallel with previously established incidence of spoilage in samples that initially contain 13 and 25 ppm. […] Product contains in excess of 2000 ppb O2.
In the presence of structurally intact pimaricin, spoilage organisms are inhibited from growth. Once the integrity of the bulk pimaricin is compromised, the organisms are able to grow. Regardless of initial concentration, pimaricin in 3.7 volume CO2 beverage will degrade at the same rate. Commonly, carbonated beverages contain a substantial amount of oxygen (>3500 ppb). Given a starting concentration of 13.5 ppm, the degradation of pimaricin is such that the concentration of pimaricin falls to below the minimum inhibitory concentration ( . . . ) at around 80 days. At this time, spoilage organisms begin to grow and induce spoilage (χ).

(IR,3S,5R,7R,8E,12R,14E,16E,18E,20E,22R,24S,25R,26S)-{[3S,4S,5S,6R)-4-amino-3,5-dihydroxy-6-methyloxan-2-yl]oxy}-1,3,26 trihydroxy-12-methyl-10-oxo-6,11,28-trioxatricyclo[22.3.1.0^5,7]octacosa-8,14,16,18,20 pentaene-25-carboxylic acid [pimaricin]
100%: Onset of Spoilage ([1]; 5 ppm Pimaricin, week 11, day 77) | Onset of Spoilage ([1]; 5 ppm Pimaricin, week 12, day 84) | Onset of Spoilage ([1]; 5 ppm Pimaricin, week 13, day 91) | Onset of Spoilage ([1]; 5 ppm Pimaricin, week 14, day 98) | Onset of Spoilage ([1]; 5 ppm Pimaricin, week 15, day 105) | Onset of Spoilage ([1]; 5 ppm Pimaricin, week 16, day 112) | Onset of Spoilage ([1]; 5 ppm Pimaricin, week 17, day 119) | Onset of Spoilage ([1]; 5 ppm Pimaricin, week 18, day 126) | Onset of Spoilage ([1]; 5 ppm Pimaricin, week 19, day 133) | Onset of Spoilage ([1]; 5 ppm Pimaricin, week 20, day 140) | Onset of Spoilage ([1]; 5 ppm Pimaricin, week 21, day 147) | Onset of Spoilage ([1]; 5 ppm Pimaricin, week 22, day 154) | Onset of Spoilage ([1]; 5 ppm Pimaricin, week 23, day 161) | Onset of Spoilage ([1]; 5 ppm Pimaricin, week 24, day 168) | samples spoiled ([1]; 5 ppm pimaricin)
remain free of spoilage: freedom from spoilage for duration of shelf-life ([1]; samples which contained 25 ppm pimaricin)
no ensuing spoilage: spoilage from outgrowth of previously inoculated organisms (spoilage organisms; starting concentration 25 ppm pimaricin, 3.7 volume CO2 beverage)
0%: Onset of Spoilage ([1]; 5 ppm Pimaricin, week 0, day 0) | Onset of Spoilage ([1]; 5 ppm Pimaricin, week 1, day 7) | Onset of Spoilage ([1]; 5 ppm Pimaricin, week 2, day 14) | Onset of Spoilage ([1]; 5 ppm Pimaricin, week 3, day 21) | Onset of Spoilage ([1]; 5 ppm Pimaricin, week 4, day 28) | Onset of Spoilage ([1]; 5 ppm Pimaricin, week 5, day 35) | Onset of Spoilage ([1]; 5 ppm Pimaricin, week 6, day 42) | Onset of Spoilage ([1]; 5 ppm Pimaricin, week 7, day 49) | Onset of Spoilage ([1]; 5 ppm Pimaricin, week 8, day 56) | Onset of Spoilage ([1]; 15 ppm Pimaricin, week 0, day 0) | Onset of Spoilage ([1]; 15 ppm Pimaricin, week 1, day 7) | Onset of Spoilage ([1]; 15 ppm Pimaricin, week 2, day 14) | Onset of Spoilage ([1]; 15 ppm Pimaricin, week 3, day 21) | Onset of Spoilage ([1]; 15 ppm Pimaricin, week 4, day 28) | Onset of Spoilage ([1]; 15 ppm Pimaricin, week 5, day 35) | Onset of Spoilage ([1]; 15 ppm Pimaricin, week 6, day 42) | Onset of Spoilage ([1]; 15 ppm Pimaricin, week 7, day 49) | Onset of Spoilage ([1]; 15 ppm Pimaricin, week 8, day 56) | Onset of Spoilage ([1]; 15 ppm Pimaricin, week 9, day 63) | Onset of Spoilage ([1]; 15 ppm Pimaricin, week 10, day 70) | Onset of Spoilage ([1]; 25 ppm Pimaricin, week 0, day 0) | Onset of Spoilage ([1]; 25 ppm Pimaricin, week 1, day 7) | Onset of Spoilage ([1]; 25 ppm Pimaricin, week 2, day 14) | Onset of Spoilage ([1]; 25 ppm Pimaricin, week 3, day 21) | Onset of Spoilage ([1]; 25 ppm Pimaricin, week 4, day 28) | Onset of Spoilage ([1]; 25 ppm Pimaricin, week 5, day 35) | Onset of Spoilage ([1]; 25 ppm Pimaricin, week 6, day 42) | Onset of Spoilage ([1]; 25 ppm Pimaricin, week 7, day 49) | Onset of Spoilage ([1]; 25 ppm Pimaricin, week 8, day 56) | Onset of Spoilage ([1]; 25 ppm Pimaricin, week 9, day 63) | Onset of Spoilage ([1]; 25 ppm Pimaricin, week 10, day 70) | Onset of Spoilage ([1]; 25 ppm Pimaricin, week 11, day 77) | Onset of Spoilage ([1]; 25 ppm Pimaricin, week 12, day 84) | Onset of Spoilage ([1]; 25 ppm Pimaricin, week 13, day 91) | Onset of Spoilage ([1]; 25 ppm Pimaricin, week 14, day 98) | Onset of Spoilage ([1]; 25 ppm Pimaricin, week 15, day 105) | Onset of Spoilage ([1]; 25 ppm Pimaricin, week 16, day 112) | Onset of Spoilage ([1]; 25 ppm Pimaricin, week 17, day 119) | Onset of Spoilage ([1]; 25 ppm Pimaricin, week 18, day 126) | Onset of Spoilage ([1]; 25 ppm Pimaricin, week 19, day 133) | Onset of Spoilage ([1]; 25 ppm Pimaricin, week 20, day 140) | Onset of Spoilage ([1]; 25 ppm Pimaricin, week 21, day 147) | Onset of Spoilage ([1]; 25 ppm Pimaricin, week 22, day 154) | Onset of Spoilage ([1]; 25 ppm Pimaricin, week 23, day 161) | Onset of Spoilage ([1]; 25 ppm Pimaricin, week 24, day 168)
33%: Onset of Spoilage ([1]; 15 ppm Pimaricin, week 11, day 77) | Onset of Spoilage ([1]; 15 ppm Pimaricin, week 12, day 84) | Onset of Spoilage ([1]; 15 ppm Pimaricin, week 13, day 91) | Onset of Spoilage ([1]; 15 ppm Pimaricin, week 14, day 98) | Onset of Spoilage ([1]; 15 ppm Pimaricin, week 15, day 105) | Onset of Spoilage ([1]; 15 ppm Pimaricin, week 16, day 112) | Onset of Spoilage ([1]; 15 ppm Pimaricin, week 17, day 119) | Onset of Spoilage ([1]; 15 ppm Pimaricin, week 18, day 126) | Onset of Spoilage ([1]; 15 ppm Pimaricin, week 19, day 133) | Onset of Spoilage ([1]; 15 ppm Pimaricin, week 20, day 140) | Onset of Spoilage ([1]; 15 ppm Pimaricin, week 21, day 147) | Onset of Spoilage ([1]; 15 ppm Pimaricin, week 22, day 154) | Onset of Spoilage ([1]; 15 ppm Pimaricin, week 23, day 161) | Onset of Spoilage ([1]; 15 ppm Pimaricin, week 24, day 168) | samples spoiled ([1]; 15 ppm pimaricin) | incidence of spoilage (spoilage organisms; initial concentration 13 ppm pimaricin, carbonated beverage 3.6 volumes CO2, in excess of 2000 ppb O2)
1.5-2 ppm: pimaricin concentration below which spoilage ensues (spoilage organisms; intersect of time of onset of spoilage and degradation plot for 13 ppm pimaricin)
around 80 days: time at which pimaricin concentration falls below the minimum inhibitory concentration (spoilage organisms; starting concentration 13.5 ppm, 3.7 volume CO2 beverage)
about 2 ppm: critical concentration of pimaricin (no spoilage above it) (spoilage organisms; 3.7 volume CO2 beverage)
75%: Onset of Spoilage ([1]; 5 ppm Pimaricin, week 9, day 63) | Onset of Spoilage ([1]; 5 ppm Pimaricin, week 10, day 70)
did not suffer any spoilage: spoilage among samples evaluated (spoilage organisms; product containing 25 ppm pimaricin, carbonated beverage 3.6 volumes CO2)
None: samples spoiled ([1]; equivalent of 30 mg pimaricin per ml)
> 80 days: incubation time before spoilage (spoilage organisms; initial concentration 13 ppm pimaricin, carbonated beverage 3.6 volumes CO2)

— patent US20150335055A1, “BEVERAGE PR[…] BASED ON PIMARICIN AND HEADSPACE GAS” (PEPSICO, INC., priority 2013, published 2015)
